This is an account of results in ChEMBL document CHEMBL3769376, “Discovery of I-BRD9, a Selective Cell Active Chemical Probe for Bromodomain Containing Protein 9 Inhibition” (J Med Chem, 2016).

Data set [1] deals with T1, Bromodomain-containing protein 9 (Homo sapiens, UniProt Q9H8M2).
T1 sequence (Q9H8M2 whole entry): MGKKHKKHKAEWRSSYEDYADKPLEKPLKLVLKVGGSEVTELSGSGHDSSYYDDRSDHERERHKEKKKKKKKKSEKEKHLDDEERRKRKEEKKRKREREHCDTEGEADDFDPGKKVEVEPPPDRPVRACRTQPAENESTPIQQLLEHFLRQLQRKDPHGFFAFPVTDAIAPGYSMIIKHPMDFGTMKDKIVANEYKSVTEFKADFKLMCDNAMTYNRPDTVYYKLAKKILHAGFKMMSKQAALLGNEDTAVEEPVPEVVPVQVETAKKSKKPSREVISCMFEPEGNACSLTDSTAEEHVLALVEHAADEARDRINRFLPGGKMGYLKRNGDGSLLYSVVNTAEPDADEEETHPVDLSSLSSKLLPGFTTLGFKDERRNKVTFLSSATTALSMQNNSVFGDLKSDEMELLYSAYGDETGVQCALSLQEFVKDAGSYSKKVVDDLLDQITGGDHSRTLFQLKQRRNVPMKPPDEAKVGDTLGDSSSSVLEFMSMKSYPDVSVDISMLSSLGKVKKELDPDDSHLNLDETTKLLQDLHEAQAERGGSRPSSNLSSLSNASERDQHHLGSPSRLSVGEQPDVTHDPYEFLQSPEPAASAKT
Briefly: Inhibition of BRD9 (unknown origin) incubated in dark for 30 mins by TR-FRET assay. (In general: In TR-FRET formats the signal depends on donor and acceptor labels being close together.)

The target in data set [2] is Bromodomain-containing protein 4 (Homo sapiens, UniProt O60885). Briefly: Inhibition of BRD4 bromodomain 1 (unknown origin) incubated in dark for 30 mins by TR-FRET assay.
Data set [3] is described as follows: Dissociation constant, pKa of the compound. It is filed as physicochemical.
Data set [4] addresses T2, Bromodomain-containing protein 9 (Homo sapiens) (UniProt Q9H8M2).
T2 sequence (whole entry): T1 sequence (Q9H8M2 whole entry)
The data set is described as follows: Inhibition of BRD9 in human Kasumi-1 cells assessed as downregulation of FES gene at 1 uM after 6 hrs by qPCR method. The data set is classed as cell-based. (In general: Quantitative PCR measures a nucleic acid by following its amplification.)

Data set [5] addresses T2, Bromodomain-containing protein 9 (Homo sapiens). The data set is described as follows: Inhibition of BRD9 in human Kasumi-1 cells assessed as downregulation of SAMSN1 gene at 1 uM after 6 hrs by qPCR method. It is filed as cell-based.
Data set [6] shares this target. The data set is described as follows: Inhibition of BRD9 in human Kasumi-1 cells assessed as downregulation of DUSP6 gene at 1 uM after 6 hrs by qPCR method. It is filed as cell-based.
The target is the same in data set [7]. The data set is described as follows: Inhibition of BRD9 in human Kasumi-1 cells assessed as downregulation of CLEC1 gene at 1 uM after 6 hrs by qPCR method. It is filed as cell-based.

Active and inactive are the calls of the source. No cut-off for these calls is given here. A value given as a limit tells only on which side of the number the result lay.

For orientation: IC50 means the concentration at which inhibition is half-maximal. A higher IC50 goes with lower potency. Consider `COc1ccc(-c2cn(C)c(=O)c3cc(C(=O)N(C)C)sc23)cc1OC`, for which the half-maximal inhibitory concentration (IC50) in data set [1] was 5010 nM; in data set [2], 12600 nM.
On the same counts, the results for `CN(C)c1cccc(-c2cn(C)c(=O)c3cc(C(=N)NC4CCS(=O)(=O)CC4)sc23)c1` are 10 nM and 501 nM.
The matching figures for `Cn1cc(-c2cccc(C#N)c2)c2sc(C(=N)NC3CCS(=O)(=O)CC3)cc2c1=O`: 39.8 nM and 2510 nM.
On the same counts, the results for `CC(C)n1cc(-c2cccc(C(F)(F)F)c2)c2sc(C(=N)NC3CCS(=O)(=O)CC3)cc2c1=O` are 3160 nM and greater than 50100 nM.
On to `COc1ccc(-c2cn(C)c(=O)c3cc(C(=N)NC4CCS(=O)(=O)CC4)sc23)cc1OC`, for which the figures for the half-inhibitory concentration (IC50) in data set [1] and in data set [2] were 7.94 nM and 398 nM, respectively.
The matching figures for `COc1cccc(-c2cn(C)c(=O)c3cc(C(=N)NC4CCS(=O)(=O)CC4)sc23)c1`: 12.6 nM and 794 nM.
One may read the pKa as the negative logarithm of the acid dissociation constant. High values mean a weaker acid or stronger base, low ones a stronger acid or weaker base. Turning to `Cn1cc(-c2cccc(C(F)(F)F)c2)c2sc(C(=N)NC3CCS(=O)(=O)CC3)cc2c1=O`, the IC50 in data set [1] was 15.8 nM; in data set [2], 2510 nM. This compound came in with a pKa in data set [3] of 8.4.
On to `CNC(=N)c1cc2c(=O)n(C)cc(-c3ccc(OC)c(OC)c3)c2s1`, for which the results for the IC50 in data set [1] and in data set [2] were 79.4 nM and 1260 nM, respectively.
The matching figures for `Cn1cc(-c2ccccc2)c2sc(C(=N)NC3CCS(=O)(=O)CC3)cc2c1=O`: 39.8 nM and 1580 nM.
As to `CNC(=O)c1cc2c(=O)n(C)cc(-c3ccc(OC)c(OC)c3)c2s1`, the half-maximal inhibitory concentration (IC50) in data set [1] was 126 nM; in data set [2], 200 nM.
On the same counts, the results for `COc1ccc(-c2cn(C)c(=O)c3cc(C(=O)NC4CCS(=O)(=O)CC4)sc23)cc1OC` are 12.6 nM and 50.1 nM.
On the same counts, the results for `COc1ccc(-c2cn(C)c(=O)c3cc(C(=O)N4CCCCC4)sc23)cc1OC` are 3980 nM and 15800 nM.
Take `COc1cc2c(cc1-c1c(C)noc1C)ncc1[nH]c(=O)n([C@H](C)c3ccccn3)c12`: the inhibition entry in data set [4], in data set [5], in data set [6] and in data set [7] was “inactive” each time.
Regarding `COc1ccc(-c2cn(C)c(=O)c3cc(C(=O)N4CCN(S(C)(=O)=O)CC4)sc23)cc1OC`, the IC50 in data set [1] was 200 nM; in data set [2] it was 20000 nM.
